Literature values in US20050152951A1, “Liquid, eye-instillable preparations comprising sodium hyaluronate” (priority 2001, published 2005).

Conditions: water retained by 1 gram of SH

Substance: Sodium hyaluronate [SH]
- water retention: up to 6 litres
